# From ChEMBL document CHEMBL1157764, “Conserved high activity binding peptides are involved in adhesion of two detergent-resistant membrane-associated merozoite proteins to red blood cells during invasion” (J Med Chem, 2010)
# Species on record: Homo sapiens
# Test: Binding affinity to RBC membrane receptor in human RBCs assessed as specific binding activity measured as ratio of specifically bound peptide/added peptide by gamma counter
row,Activity,Structure (SMILES)
1,> 2%,CC(C)C[C@H](NC(=O)[C@@H](NC(=O)[C@@H](N)CC(=O)O)C(C)C)C(=O)N[C@@H](CO)C(=O)N[C@@H](CCC(=O)O)C(=O)N[C@@H](CO)C(=O)N[C@@H](CC(N)=O)C(=O)N[C@@H](CC(N)=O)C(=O)N[C@@H](CCC(=O)O)C(=O)N[C@@H](CC(N)=O)C(=O)N[C@@H](CCCCN)C(=O)N[C@@H](CCC(=O)O)C(=O)N[C@H](C(=O)N[C@@H](CO)C(=O)N[C@@H](CC(=O)O)C(=O)N[C@@H](CC(=O)O)C(=O)N[C@@H](C)C(=O)N[C@H](C(=O)N[C@@H](Cc1cnc[nH]1)C(=O)N[C@@H](Cc1ccc(O)cc1)C(=O)O)[C@@H](C)O)[C@@H](C)O
2,< 2%,CC(C)C[C@H](NC(=O)[C@H](CC(C)C)NC(=O)[C@H](CO)NC(=O)[C@@H]1CCCN1C(=O)[C@@H](NC(=O)[C@H](CC(C)C)NC(=O)[C@H](Cc1ccc(O)cc1)NC(=O)[C@H](CO)NC(=O)[C@H](CCCCN)NC(=O)[C@H](CCCCN)NC(=O)[C@H](CCCCN)NC(=O)CNC(=O)[C@@H](NC(=O)[C@H](CO)NC(=O)[C@H](CS)NC(=O)[C@H](CCCCN)NC(=O)[C@H](Cc1cnc[nH]1)NC(=O)[C@H](Cc1ccc(O)cc1)NC(=O)[C@H](CC(=O)O)NC(=O)[C@@H](N)CO)C(C)C)[C@@H](C)O)C(=O)O
3,> 2%,CC(C)C[C@H](NC(=O)[C@H](CC(N)=O)NC(=O)[C@H](CC(C)C)NC(=O)[C@@H]1CCCN1C(=O)[C@H](CC(N)=O)NC(=O)[C@H](CCCCN)NC(=O)[C@H](Cc1ccc(O)cc1)NC(=O)[C@@H](N)CS)C(=O)N[C@@H](CCCCN)C(=O)N[C@H](C(=O)N[C@@H](CC(C)C)C(=O)N[C@@H](CCC(=O)O)C(=O)N[C@H](C(=O)N[C@@H](CC(C)C)C(=O)N[C@@H](CC(C)C)C(=O)N[C@@H](CCCCN)C(=O)N[C@@H](CCCCN)C(=O)N[C@@H](CC(N)=O)C(=O)N[C@@H](Cc1ccc(O)cc1)C(=O)N[C@@H](Cc1ccc(O)cc1)C(=O)O)C(C)C)C(C)C
4,> 2%,CC(C)[C@H](NC(=O)[C@H](CC(=O)O)NC(=O)[C@H](CC(=O)O)NC(=O)[C@H](CC(=O)O)NC(=O)[C@H](CO)NC(=O)[C@H](CCC(=O)O)NC(=O)[C@H](CC(N)=O)NC(=O)[C@H](CC(=O)O)NC(=O)[C@H](CCC(N)=O)NC(=O)[C@H](CC(N)=O)NC(=O)[C@H](CCCCN)NC(=O)[C@H](CC(N)=O)NC(=O)[C@H](CCC(=O)O)NC(=O)[C@@H](N)CC(=O)O)C(=O)N[C@@H](CC(N)=O)C(=O)N[C@@H](CC(N)=O)C(=O)N[C@@H](CC(N)=O)C(=O)N[C@@H](CC(N)=O)C(=O)N[C@@H](CC(N)=O)C(=O)N[C@@H](CC(N)=O)C(=O)N[C@@H](Cc1ccc(O)cc1)C(=O)N[C@@H](CC(N)=O)C(=O)N[C@@H](CC(N)=O)C(=O)N[C@@H](CC(=O)O)C(=O)N[C@@H](CC(=O)O)C(=O)O
5,> 2%,CC(C)[C@H](NC(=O)[C@H](Cc1ccc(O)cc1)NC(=O)[C@@H](N)CCC(=O)O)C(=O)N[C@@H](CC(N)=O)C(=O)N[C@@H](C)C(=O)N[C@@H](CC(N)=O)C(=O)N[C@@H](CO)C(=O)N[C@@H](CO)C(=O)N[C@@H](CCC(=O)O)C(=O)N[C@@H](CO)C(=O)N[C@@H](CO)C(=O)N[C@@H](CCC(=O)O)C(=O)N[C@@H](CCC(=O)O)C(=O)N[C@@H](CC(=O)O)C(=O)N[C@H](C(=O)N[C@H](C(=O)N1CCC[C@H]1C(=O)N[C@@H](CC(N)=O)C(=O)N[C@@H](CCC(=O)O)C(=O)N[C@H](C(=O)O)[C@@H](C)O)[C@H](C)O)[C@@H](C)O
6,< 2%,CC[C@H](C)[C@H](N)C(=O)N[C@@H](CCCCN)C(=O)N[C@@H](Cc1ccc(O)cc1)C(=O)N[C@H](C(=O)N[C@@H](CCC(=O)O)C(=O)N[C@@H](Cc1ccccc1)C(=O)N[C@@H](Cc1ccccc1)C(=O)N[C@@H](CCC(=O)O)C(=O)N[C@@H](CO)C(=O)N[C@@H](CC(N)=O)C(=O)N[C@@H](Cc1ccc(O)cc1)C(=O)N[C@@H](CC(N)=O)C(=O)N[C@@H](CCCNC(=N)N)C(=O)N[C@@H](CC(C)C)C(=O)N[C@@H](CCCCN)C(=O)N[C@@H](CCCNC(=N)N)C(=O)N[C@@H](CO)C(=O)N[C@@H](Cc1ccccc1)C(=O)N[C@@H](CCC(N)=O)C(=O)N[C@@H](CCCCN)C(=O)O)[C@@H](C)O
7,> 2%,CC[C@H](C)[C@H](NC(=O)[C@@H](N)CO)C(=O)N[C@@H](CCC(=O)O)C(=O)N[C@@H](C)C(=O)N[C@@H](CO)C(=O)N[C@@H](CCC(=O)O)C(=O)N[C@@H](CO)C(=O)N[C@@H](CO)C(=O)N[C@@H](CCC(N)=O)C(=O)N[C@@H](CCCCN)C(=O)N[C@@H](CC(=O)O)C(=O)N[C@@H](CCC(=O)O)C(=O)N[C@H](C(=O)N[C@@H](CCCCN)C(=O)N[C@@H](CCC(=O)O)C(=O)N[C@H](C(=O)N[C@@H](CCC(=O)O)C(=O)N[C@@H](CC(=O)O)C(=O)N[C@@H](CCCCN)C(=O)N[C@@H](CCC(=O)O)C(=O)N[C@@H](Cc1ccc(O)cc1)C(=O)O)[C@H](C)O)[C@@H](C)O
8,> 2%,CC[C@H](C)[C@H](NC(=O)[C@@H](NC(=O)[C@H](CC(=O)O)NC(=O)[C@H](CC(N)=O)NC(=O)[C@H](Cc1cnc[nH]1)NC(=O)[C@@H](NC(=O)[C@H](Cc1ccc(O)cc1)NC(=O)[C@H](CS)NC(=O)[C@@H](N)CCCNC(=N)N)C(C)C)C(C)C)C(=O)N[C@@H](CCCCN)C(=O)N[C@@H](Cc1ccccc1)C(=O)NCC(=O)N[C@@H](CCC(=O)O)C(=O)N[C@@H](CCC(=O)O)C(=O)N[C@@H](CC(N)=O)C(=O)N[C@@H](CO)C(=O)N[C@@H](CC(C)C)C(=O)N[C@@H](CCCCN)C(=O)N[C@@H](CS)C(=O)N[C@@H](CO)C(=O)O
9,> 2%,CC[C@H](C)[C@H](NC(=O)[C@H](C)NC(=O)[C@H](CCC(=O)O)NC(=O)[C@H](C)NC(=O)[C@H](CC(=O)O)NC(=O)[C@@H](NC(=O)[C@H](CO)NC(=O)[C@H](CC(=O)O)NC(=O)[C@H](CCC(=O)O)NC(=O)[C@H](CC(=O)O)NC(=O)[C@H](CC(N)=O)NC(=O)[C@H](CCC(N)=O)NC(=O)[C@H](CCC(N)=O)NC(=O)[C@H](CC(C)C)NC(=O)[C@H](CCC(=O)O)NC(=O)[C@@H](N)CCC(=O)O)[C@@H](C)O)C(=O)N[C@@H](CC(=O)O)C(=O)N[C@@H](CCCCN)C(=O)N[C@@H](CCC(=O)O)C(=O)N[C@@H](CCC(=O)O)C(=O)N[C@H](C(=O)N[C@@H](CCC(=O)O)C(=O)N[C@@H](Cc1ccc(O)cc1)C(=O)O)C(C)C
10,> 2%,CC[C@H](C)[C@H](NC(=O)[C@H](CC(C)C)NC(=O)[C@@H](N)C(C)C)C(=O)N[C@@H](C)C(=O)N[C@@H](CCC(=O)O)C(=O)NCC(=O)N[C@@H](Cc1ccc(O)cc1)C(=O)N[C@@H](CCCCN)C(=O)N[C@@H](CCCNC(=N)N)C(=O)N[C@H](C(=O)N[C@@H](CC(N)=O)C(=O)N[C@@H](CCC(=O)O)C(=O)N[C@@H](CCCCN)C(=O)N[C@@H](CCC(=O)O)C(=O)N[C@@H](CC(=O)O)C(=O)N[C@H](C(=O)N[C@@H](CC(=O)O)C(=O)N[C@@H](CCCNC(=N)N)C(=O)N[C@@H](CCCNC(=N)N)C(=O)O)[C@@H](C)CC)[C@@H](C)CC
11,> 2%,CC[C@H](C)[C@H](NC(=O)[C@H](CC(N)=O)NC(=O)[C@@H](NC(=O)[C@H](CC(N)=O)NC(=O)CNC(=O)[C@H](CC(=O)O)NC(=O)[C@H](CCCCN)NC(=O)[C@@H](NC(=O)[C@@H](NC(=O)[C@@H](NC(=O)[C@@H]1CCCN1C(=O)[C@H](CCC(=O)O)NC(=O)[C@H](CCC(=O)O)NC(=O)[C@H](CC(N)=O)NC(=O)[C@@H](N)CCCCN)C(C)C)[C@@H](C)CC)C(C)C)[C@@H](C)CC)C(=O)N[C@@H](CCCCN)C(=O)N[C@@H](CO)C(=O)N[C@@H](C)C(=O)N[C@@H](CC(C)C)C(=O)N[C@@H](CC(C)C)C(=O)N[C@@H](Cc1ccc(O)cc1)C(=O)O
12,< 2%,CC[C@H](C)[C@H](NC(=O)[C@H](CCC(N)=O)NC(=O)CNC(=O)[C@H](C)NC(=O)[C@@H](N)CC(C)C)C(=O)N[C@@H](CC(N)=O)C(=O)NCC(=O)N[C@@H](CC(C)C)C(=O)N[C@@H](CC(N)=O)C(=O)N[C@@H](CC(=O)O)C(=O)N[C@@H](CC(C)C)C(=O)N[C@@H](Cc1ccc(O)cc1)C(=O)NCC(=O)N[C@@H](CCCNC(=N)N)C(=O)N[C@@H](CC(N)=O)C(=O)N[C@@H](CO)C(=O)N[C@@H](CCCCN)C(=O)N[C@@H](CCCCN)C(=O)N[C@H](C(=O)N[C@@H](Cc1ccc(O)cc1)C(=O)O)[C@@H](C)O
13,> 2%,CC[C@H](C)[C@H](NC(=O)[C@H](CCCNC(=N)N)NC(=O)[C@H](CC(C)C)NC(=O)[C@H](CC(=O)O)NC(=O)[C@H](CCC(=O)O)NC(=O)[C@@H](NC(=O)[C@@H](NC(=O)[C@H](CO)NC(=O)CNC(=O)[C@H](CCCCN)NC(=O)[C@@H](N)CCCCN)[C@@H](C)CC)[C@@H](C)O)C(=O)N[C@H](C(=O)N[C@@H](CC(N)=O)C(=O)N[C@@H](CC(=O)O)C(=O)N[C@@H](CC(C)C)C(=O)N[C@@H](CCC(=O)O)C(=O)N1CCC[C@H]1C(=O)N[C@@H](CC(C)C)C(=O)N[C@@H](CC(=O)O)C(=O)N[C@@H](Cc1ccc(O)cc1)C(=O)O)C(C)C
14,> 2%,CC[C@H](C)[C@H](NC(=O)[C@H](Cc1ccc(O)cc1)NC(=O)[C@H](CCCCN)NC(=O)[C@H](CC(N)=O)NC(=O)[C@@H](N)CCCCN)C(=O)N[C@@H](CO)C(=O)N[C@@H](CC(C)C)C(=O)N[C@@H](Cc1ccc(O)cc1)C(=O)N[C@@H](CC(N)=O)C(=O)N[C@@H](CCCCN)C(=O)N[C@H](C(=O)N[C@@H](CCCCN)C(=O)N[C@H](C(=O)N[C@H](C(=O)N[C@@H](CCSC)C(=O)N1CCC[C@H]1C(=O)N[C@@H](CCC(=O)O)C(=O)N[C@@H](CC(C)C)C(=O)N[C@@H](Cc1ccccc1)C(=O)N[C@@H](CC(=O)O)C(=O)O)[C@@H](C)O)[C@H](C)O)C(C)C
15,> 2%,CC[C@H](C)[C@H](NC(=O)[C@H](Cc1ccccc1)NC(=O)[C@H](CC(C)C)NC(=O)[C@H](CC(C)C)NC(=O)[C@H](CC(C)C)NC(=O)[C@H](CC(C)C)NC(=O)[C@@H](NC(=O)[C@@H](NC(=O)[C@H](CC(C)C)NC(=O)[C@H](CC(C)C)NC(=O)[C@H](C)NC(=O)[C@H](CC(N)=O)NC(=O)[C@H](CO)NC(=O)[C@H](CCSC)NC(=O)[C@H](C)NC(=O)[C@H](Cc1ccccc1)NC(=O)[C@@H](N)Cc1ccccc1)C(C)C)[C@@H](C)CC)C(=O)N[C@@H](CCC(=O)O)C(=O)N[C@@H](Cc1ccccc1)C(=O)N[C@@H](CC(C)C)C(=O)N[C@@H](Cc1ccc(O)cc1)C(=O)O
